According to patent US8969383B2, “Picolinamide derivatives as TTX-S blockers” (RaQualia Pharma Inc., priority 2009, dated 2015):

What was measured:
human Nav1.3 = molecular target: T1, human Nav1.3 (Homo sapiens, UniProt Q9NY46); assay: FRET assay, human Nav1.3 channels expressed in HEK293 cells; type: cell-based; details: HEK293 cells expressing human NaV1.3, veratridine-opened channels
T1 construct: expressed in transfected cells; host or cells: HEK293
Procedure: (§1) The ability of the picolinamide derivatives of the formula (I) to inhibit the NaV1.3,Nav1.7 and Nav1.5 channels was measured by FRET assay and electrophysiology assay described below.
(§2) This screen is used to determine the effects of compounds on human Nav1.3, human Nav1.7, and human Nav1.5 channels, utilising the cell imaging technology by Hamamatsu Photonics's Functional Drug Screening System (FDSS). This experiment is based on FRET (Fluorescence Resonance Energy Transfer) and uses two fluorescent molecules. The first molecule, Oxonol (DiSBAC2(3)), is a highly fluorescent, negatively charged, hydrophobic ion that “senses” the trans-membrane electrical potential. In response to changes in membrane potential, it can rapidly redistribute between two binding sites on opposite sides of the plasma membrane. The voltage dependent redistribution is transduced into a ratiometric fluorescent readout via a second fluorescent molecule (Coumarin (CC2-DMPE)) that binds specifically to one face of the plasma membrane and functions as a FRET partner to the mobile voltage-sensing ion. To enable the assay to work, the channels have to be pharmacologically held in the open state. This is achieved by treating the cells with veratridine.
Each HEK293 cells expressing human NaV1.3 channels and HEK293 cells expressing human NaV1.5 channels were grown in T225 flasks, in a 5% CO2 humidified incubator to about 80% confluence. Media composition consisted of Dulbecco's Modified Eagle Medium (high glucose), 10% fetal calf serum (FCS), 100 units/ml Penicillin, 100 microgram/ml Streptomycin and 500 microgram/ml Geneticine.
(§3) • Seed each cell lines (1.5×10^4 cells/well) into poly-D-lysine coated 384-well plates prior to experimentation. • Incubate at 37° C. in 5% CO2 for 24 hours. • Wash each well with buffer #1 (140 mM NaCl, 4.5 mM KCl, 10 mM D-Glucose, 2 mM CaCl2, 1 mM MgCl2, 10 mM HEPES, pH 7.4 adjusted with NaOH) twice using plate washer. • Add 1st loading solution containing 5 μM CC2-DMPE and 0.02% Pluronic F-127 in buffer #1. • Incubate the plate at room temperature in dark for 0.5 hours. • Wash each well with buffer #2 (160 mM Choline, 10 mM D-Glucose, 0.1 mM CaCl2, 1 mM MgCl2, 10 mM HEPES, pH 7.4 adjusted with KOH) twice using plate washer. • Add 2nd loading solution containing 15 μM DiSBAC2(3), 0.5 mM VABSC-1, 10 μM veratridine and 0.004% Pluronic F-127 in buffer #2. • Add compound solutions into the assay plate and leave the plate for 30 minutes under the dark at room temperature. • Measure by FDSS.
(§4) The data was analyzed and reported as normalized ratios of intensities measured in the 465 nm and 575 nm channels. The process of calculating these ratios was performed as follows:
(§5) “FI465B”=the mean of fluorescence intensity as baseline (before Na+ ligand addition) at 465 nm
(§6) “FI575B”=the mean of fluorescence intensity as baseline (before Na+ ligand addition) at 575 nm
(§7) “FI465Max”=maximum fluorescence intensity at 465 nm after Na+ stimulation
(§8) “FI575 Min”=minimum fluorescence intensity at 575 nm after Na+ stimulation
(§9) This analysis was performed using a computerized specific program designed for FDSS generated data. Fluorescence ratio values were plotted using XLfit to determine an IC50 value for each compound.

human Nav1.7 = molecular target: T2, human Nav1.7 (Homo sapiens, UniProt Q15858); assay: FRET assay, human Nav1.7 channels expressed in CHO cells; type: cell-based; details: CHO cells expressing human NaV1.7, veratridine-opened channels
T2 construct: expressed in transfected cells; host or cells: CHO
T2 sequence (Q15858 whole entry): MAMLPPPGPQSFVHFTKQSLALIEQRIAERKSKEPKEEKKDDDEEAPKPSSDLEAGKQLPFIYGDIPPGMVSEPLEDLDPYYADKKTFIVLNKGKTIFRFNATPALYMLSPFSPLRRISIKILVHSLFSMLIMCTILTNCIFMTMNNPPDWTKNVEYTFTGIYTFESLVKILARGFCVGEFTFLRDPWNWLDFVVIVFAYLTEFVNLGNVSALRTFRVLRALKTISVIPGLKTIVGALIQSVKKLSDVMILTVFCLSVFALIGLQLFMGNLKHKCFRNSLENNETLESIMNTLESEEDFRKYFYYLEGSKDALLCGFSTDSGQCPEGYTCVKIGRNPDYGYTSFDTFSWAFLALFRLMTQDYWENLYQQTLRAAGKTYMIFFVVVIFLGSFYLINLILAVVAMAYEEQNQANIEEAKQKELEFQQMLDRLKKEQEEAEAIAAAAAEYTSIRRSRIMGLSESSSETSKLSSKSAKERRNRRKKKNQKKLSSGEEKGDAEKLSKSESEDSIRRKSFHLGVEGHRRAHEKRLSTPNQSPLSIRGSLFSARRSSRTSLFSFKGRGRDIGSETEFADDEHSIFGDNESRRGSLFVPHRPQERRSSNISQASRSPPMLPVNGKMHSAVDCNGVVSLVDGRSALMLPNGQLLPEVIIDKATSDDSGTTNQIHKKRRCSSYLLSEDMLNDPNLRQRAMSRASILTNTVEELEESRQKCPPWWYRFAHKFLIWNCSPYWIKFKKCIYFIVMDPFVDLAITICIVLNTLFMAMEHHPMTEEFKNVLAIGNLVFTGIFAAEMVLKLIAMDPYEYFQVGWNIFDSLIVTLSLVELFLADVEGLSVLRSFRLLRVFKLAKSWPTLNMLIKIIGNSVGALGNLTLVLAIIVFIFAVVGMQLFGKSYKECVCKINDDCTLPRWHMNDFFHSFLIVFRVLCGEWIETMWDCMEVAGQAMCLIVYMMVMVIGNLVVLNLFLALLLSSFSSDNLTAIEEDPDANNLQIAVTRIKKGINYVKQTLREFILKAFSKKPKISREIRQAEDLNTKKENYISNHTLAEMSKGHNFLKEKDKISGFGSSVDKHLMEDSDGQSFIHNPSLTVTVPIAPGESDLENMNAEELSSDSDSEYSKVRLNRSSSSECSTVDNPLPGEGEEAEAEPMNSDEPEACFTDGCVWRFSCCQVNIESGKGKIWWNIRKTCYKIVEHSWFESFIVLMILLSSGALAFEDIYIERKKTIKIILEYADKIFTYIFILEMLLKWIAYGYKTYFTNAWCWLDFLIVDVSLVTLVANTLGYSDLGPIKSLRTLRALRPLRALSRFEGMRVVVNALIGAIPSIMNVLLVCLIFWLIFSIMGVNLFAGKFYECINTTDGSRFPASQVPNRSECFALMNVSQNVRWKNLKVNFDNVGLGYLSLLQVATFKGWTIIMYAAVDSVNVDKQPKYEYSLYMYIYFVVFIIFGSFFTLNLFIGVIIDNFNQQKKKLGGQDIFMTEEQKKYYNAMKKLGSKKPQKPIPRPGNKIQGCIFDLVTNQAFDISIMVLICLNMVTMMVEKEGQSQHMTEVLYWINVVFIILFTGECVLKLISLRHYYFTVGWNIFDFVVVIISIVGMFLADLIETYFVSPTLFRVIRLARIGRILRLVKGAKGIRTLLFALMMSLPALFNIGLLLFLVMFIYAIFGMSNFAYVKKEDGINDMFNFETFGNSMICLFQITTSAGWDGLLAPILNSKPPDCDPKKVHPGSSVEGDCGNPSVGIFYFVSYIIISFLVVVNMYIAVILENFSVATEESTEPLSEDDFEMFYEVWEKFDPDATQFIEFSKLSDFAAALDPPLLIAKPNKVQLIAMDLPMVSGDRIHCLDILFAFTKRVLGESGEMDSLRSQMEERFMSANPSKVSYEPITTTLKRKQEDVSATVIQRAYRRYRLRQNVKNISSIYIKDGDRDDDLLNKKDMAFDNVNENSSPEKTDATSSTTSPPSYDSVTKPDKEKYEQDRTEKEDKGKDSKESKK
Procedure: as §1, §2
CHO cells expressing human NaV1.7 channels were grown in T225 flasks, in a 5% CO 2 humidified incubator to about 80% confluence. Media composition consisted of HAM/F12 with Glutamax 1.10% fetal calf serum (FCS), 100 units/ml Penicillin and 100 microgram/ml Hygromycin.
as §3, §4, §5, §6, §7, §8, §9

T1 sequence (Q9NY46 whole entry): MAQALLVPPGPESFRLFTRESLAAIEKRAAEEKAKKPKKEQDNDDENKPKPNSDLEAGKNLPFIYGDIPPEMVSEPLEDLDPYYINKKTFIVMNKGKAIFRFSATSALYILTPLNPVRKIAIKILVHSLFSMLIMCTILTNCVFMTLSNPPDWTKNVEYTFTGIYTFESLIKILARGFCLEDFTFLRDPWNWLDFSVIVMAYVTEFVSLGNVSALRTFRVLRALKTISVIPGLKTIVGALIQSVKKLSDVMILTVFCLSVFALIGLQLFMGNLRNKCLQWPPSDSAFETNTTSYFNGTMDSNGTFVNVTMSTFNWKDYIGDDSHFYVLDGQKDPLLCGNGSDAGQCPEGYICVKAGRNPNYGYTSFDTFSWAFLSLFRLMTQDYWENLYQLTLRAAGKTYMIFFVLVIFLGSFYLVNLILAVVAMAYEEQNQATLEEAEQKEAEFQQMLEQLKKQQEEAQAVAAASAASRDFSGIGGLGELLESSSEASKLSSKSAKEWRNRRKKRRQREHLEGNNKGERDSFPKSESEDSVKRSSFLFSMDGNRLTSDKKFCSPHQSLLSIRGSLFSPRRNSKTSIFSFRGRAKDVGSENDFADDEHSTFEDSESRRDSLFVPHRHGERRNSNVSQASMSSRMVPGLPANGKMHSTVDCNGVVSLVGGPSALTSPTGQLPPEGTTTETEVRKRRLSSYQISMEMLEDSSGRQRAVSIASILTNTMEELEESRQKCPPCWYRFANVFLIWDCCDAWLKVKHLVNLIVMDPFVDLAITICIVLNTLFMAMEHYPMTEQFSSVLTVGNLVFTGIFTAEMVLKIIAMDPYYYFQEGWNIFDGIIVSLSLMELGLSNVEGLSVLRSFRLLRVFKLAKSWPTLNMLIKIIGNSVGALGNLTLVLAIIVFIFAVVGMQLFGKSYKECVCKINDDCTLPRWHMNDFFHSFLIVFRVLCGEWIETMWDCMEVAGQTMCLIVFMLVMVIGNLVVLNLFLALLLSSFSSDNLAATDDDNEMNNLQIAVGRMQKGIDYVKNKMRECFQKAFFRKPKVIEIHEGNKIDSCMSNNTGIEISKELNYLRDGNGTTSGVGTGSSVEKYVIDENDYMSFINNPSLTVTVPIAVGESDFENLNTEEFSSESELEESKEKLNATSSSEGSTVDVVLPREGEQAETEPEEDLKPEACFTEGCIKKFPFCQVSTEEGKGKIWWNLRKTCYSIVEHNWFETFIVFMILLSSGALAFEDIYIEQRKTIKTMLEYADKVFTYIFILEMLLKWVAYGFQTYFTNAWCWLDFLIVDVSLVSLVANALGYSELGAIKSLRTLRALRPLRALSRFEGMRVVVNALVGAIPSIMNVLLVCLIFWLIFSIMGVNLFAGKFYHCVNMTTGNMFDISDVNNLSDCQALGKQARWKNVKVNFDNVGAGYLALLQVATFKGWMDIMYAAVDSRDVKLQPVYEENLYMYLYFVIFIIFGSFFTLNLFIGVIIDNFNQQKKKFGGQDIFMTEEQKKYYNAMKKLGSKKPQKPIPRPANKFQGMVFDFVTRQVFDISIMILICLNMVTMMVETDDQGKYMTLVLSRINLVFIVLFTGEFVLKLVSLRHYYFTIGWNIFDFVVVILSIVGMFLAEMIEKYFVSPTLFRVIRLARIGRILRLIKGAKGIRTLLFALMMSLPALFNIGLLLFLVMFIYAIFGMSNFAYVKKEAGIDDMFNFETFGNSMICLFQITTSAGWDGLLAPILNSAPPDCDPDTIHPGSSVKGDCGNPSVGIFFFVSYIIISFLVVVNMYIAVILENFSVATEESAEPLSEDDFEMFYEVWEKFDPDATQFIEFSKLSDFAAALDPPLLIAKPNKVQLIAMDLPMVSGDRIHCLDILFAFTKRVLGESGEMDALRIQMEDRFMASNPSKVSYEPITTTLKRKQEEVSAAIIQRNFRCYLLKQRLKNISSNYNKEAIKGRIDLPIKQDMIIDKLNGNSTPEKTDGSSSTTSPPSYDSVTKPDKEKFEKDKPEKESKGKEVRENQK

SMILES | IC50 (human Nav1.3) | IC50 (human Nav1.7)
NC(=O)c1ncccc1OC[C@H]1CCCN1C(=O)c1ccc(C(F)(F)F)cc1 [Example 5, (R)-3-((1-(4-(trifluoromethyl)benzoyl)pyrrolidin-2-yl)methoxy) picolinamide] | ≤ 500 nM | ≤ 500 nM
CC(C)(C)c1cc(C(=O)N2CCC[C@@H]2COc2cccnc2C(N)=O)no1 [Example 17, (R)-3-((1-(5-tert-butylisoxazole-3-carbonyl)pyrrolidin-2-yl)methoxy)picolinamide] | ≤ 500 nM | ≤ 500 nM
NC(=O)c1ncccc1OC[C@H]1CCCN1C(=O)COc1ccc(C(F)(F)F)cc1 [Example 18, (R)-3-((1-(2-(4-(trifluoromethyl)phenoxy)acetyl)pyrrolidin-2-yl)methoxy)picolinamide] | ≤ 500 nM | ≤ 500 nM
NC(=O)c1ncccc1OC[C@H]1CCCN1C(=O)c1ccc(OCC(F)(F)F)cc1 [Example 21, (R)-3-((1-(4-(2,2,2-trifluoroethoxy)benzoyl)pyrrolidin-2-yl)methoxy)picolinamide] | ≤ 500 nM | ≤ 500 nM
NC(=O)c1ncccc1OC[C@H]1CCCN1C(=O)c1ccc(OC(F)(F)F)cc1 [Example 25, (R)-3-((1-(4-(trifluoromethoxy)benzoyl)pyrrolidin-2-yl)methoxy) picolinamide] | ≤ 500 nM | ≤ 500 nM
O=C(NCC1(O)CCCCC1)c1ncccc1OC[C@H]1CCCN1C(=O)[C@H]1CC[C@H](C(F)(F)F)CC1 [Example 39, N-((1-hydroxycyclohexyl)methyl)-3-(((R)-1-(trans-4-(trifluoromethyl)cyclohexanecarbonyl)pyrrolidin-2-yl)methoxy)picolinamide] | ≤ 500 nM | ≤ 500 nM
O=C(NCc1ccccn1)c1ncccc1OC[C@H]1CCCN1C(=O)[C@H]1CC[C@H](C(F)(F)F)CC1 [Example 40, N-(pyridin-2-ylmethyl)-3-(((R)-1-(trans-4-(trifluoromethyl)cyclohexanecarbonyl)pyrrolidin-2-yl)methoxy)picolinamide] | ≤ 500 nM | ≤ 500 nM
O=C(NCc1ccccc1)c1ncccc1OC[C@H]1CCCN1C(=O)[C@H]1CC[C@H](C(F)(F)F)CC1 [Example 41, N-benzyl-3-(((R)-1-(trans-4-(trifluoromethyl)cyclohexanecarbonyl)pyrrolidin-2-yl)methoxy) picolinamide] | ≤ 500 nM | ≤ 500 nM
O=C(N[C@H](CO)c1ccccc1)c1ncccc1OC[C@H]1CCCN1C(=O)[C@H]1CC[C@H](C(F)(F)F)CC1 [Example 43, N-((S)-2-hydroxy-1-phenylethyl)-3-(((R)-1-(trans-4-(trifluoromethyl)cyclohexanecarbonyl)pyrrolidin-2-yl)methoxy) picolinamide] | ≤ 500 nM | ≤ 500 nM
O=C(Nc1ncns1)c1ncccc1OC[C@H]1CCCN1C(=O)[C@H]1CC[C@H](C(F)(F)F)CC1 [Example 47, N-(1,2,4-thiadiazol-5-yl)-3-(((R)-1-(trans-4-(trifluoromethyl)cyclohexanecarbonyl)pyrrolidin-2-yl)methoxy) picolinamide] | ≤ 500 nM | ≤ 500 nM
O=C(NC1CCOCC1)c1ncccc1OC[C@H]1CCCN1C(=O)[C@H]1CC[C@H](C(F)(F)F)CC1 [Example 49, N-(tetrahydro-2H-pyran-4-yl)-3-(((R)-1-(trans-4-(trifluoromethyl)cyclohexanecarbonyl)pyrrolidin-2-yl)methoxy) picolinamide] | ≤ 500 nM | ≤ 500 nM
O=C(Nc1ccon1)c1ncccc1OC[C@H]1CCCN1C(=O)c1cc(C2CC2)on1 [Example 65] | ≤ 500 nM | ≤ 500 nM
O=C(Nc1ccon1)c1ncccc1OC[C@H]1CCCN1C(=O)CC1CCC(F)(F)CC1 [Example 66, (R)-3-((1-(2-(4,4-difluorocyclohexyl)acetyl)pyrrolidin-2-yl)methoxy)-N-(isoxazol-3-yl)picolinamide] | ≤ 500 nM | ≤ 500 nM
O=C(NCCN1CCOCC1)c1ncccc1OC[C@H]1CCCN1C(=O)c1cccc(C(F)(F)F)c1 [Example 68, (R)-N-(2-morpholinoethyl)-3-((1-(3-(trifluoromethyl)benzoyl)pyrrolidin-2-yl)methoxy) picolinamide] | ≤ 500 nM | ≤ 500 nM
O=C(NCCO)c1ncccc1OC[C@H]1CCCN1C(=O)c1cccc(C(F)(F)F)c1 [Example 69, (R)-N-(2-hydroxyethyl)-3-((1-(3-(trifluoromethyl)benzoyl)pyrrolidin-2-yl)methoxy) picolinamide] | ≤ 500 nM | ≤ 500 nM

Next, values leading:

IC50 (human Nav1.3) | IC50 (human Nav1.7) | SMILES
≤ 500 nM | ≤ 500 nM | NC(=O)c1ncccc1OC[C@@H]1CCCN1C(=O)[C@H]1CC[C@@H](C(F)(F)F)CC1 [Example 2, 3-(((S)-1-(cis-4-(trifluoromethyl)cyclohexanecarbonyl)pyrrolidin-2-yl)methoxy)picolinamide]
≤ 500 nM | ≤ 500 nM | NC(=O)c1ncc(Cl)cc1OC[C@H]1CCCN1C(=O)[C@H]1CC[C@@H](C(F)(F)F)CC1 [Example 29, 5-chloro-3-(((R)-1-(cis-4-(trifluoromethyl)cyclohexanecarbonyl)pyrrolidin-2-yl)methoxy)picolinamide]
≤ 500 nM | ≤ 500 nM | NC(=O)c1ncc(Cl)cc1OC[C@H]1CCCN1C(=O)[C@H]1CC[C@H](C(F)(F)F)CC1 [Example 30, 5-chloro-3-(((R)-1-(trans-4-(trifluoromethyl)cyclohexanecarbonyl)pyrrolidin-2-yl)methoxy)picolinamide]
≤ 500 nM | ≤ 500 nM | COc1cnc(C(N)=O)c(OC[C@H]2CCCN2C(=O)[C@H]2CC[C@H](C(F)(F)F)CC2)c1 [Example 31, 5-methoxy-3-(((R)-1-(trans-4-(trifluoromethyl)cyclohexanecarbonyl)pyrrolidin-2-yl)methoxy)picolinamide]
≤ 500 nM | ≤ 500 nM | COC(=O)CNC(=O)c1ncccc1OC[C@H]1CCCN1C(=O)[C@H]1CC[C@H](C(F)(F)F)CC1 [Example 35, methyl 2-(3-(((R)-1-(trans-4-(trifluoromethyl)cyclohexanecarbonyl)pyrrolidin-2-yl)methoxy)picolinamido)acetate]
≤ 500 nM | ≤ 500 nM | COCCNC(=O)c1ncccc1OC[C@H]1CCCN1C(=O)[C@H]1CC[C@H](C(F)(F)F)CC1 [Example 37, N-(2-methoxyethyl)-3-(((R)-1-(trans-4-(trifluoromethyl)cyclohexanecarbonyl)pyrrolidin-2-yl)methoxy)picolinamide]
≤ 500 nM | ≤ 500 nM | O=C(Nc1ccon1)c1ncccc1OC[C@H]1CCCN1C(=O)[C@H]1CC[C@H](C(F)(F)F)CC1 [Example 54, N-(isoxazol-3-yl)-3-(((R)-1-(trans-4-(trifluoromethyl)cyclohexanecarbonyl)pyrrolidin-2-yl)methoxy)picolinamide]
≤ 500 nM | ≤ 500 nM | O=C(Nc1ncco1)c1ncccc1OC[C@@H]1CCCN1C(=O)[C@H]1CC[C@@H](C(F)(F)F)CC1 [Example 62, N-(oxazol-2-yl)-3-(((S)-1-(cis-4-(trifluoromethyl)cyclohexanecarbonyl)pyrrolidin-2-yl)methoxy)picolinamide]
≤ 500 nM | ≤ 500 nM | O=C(Nc1ncco1)c1ncccc1OC[C@H]1CCCN1C(=O)[C@H]1CC[C@@H](C(F)(F)F)CC1 [Example 63, N-(oxazol-2-yl)-3-(((R)-1-(cis-4-(trifluoromethyl)cyclohexanecarbonyl)pyrrolidin-2-yl)methoxy)picolinamide]
